Data from patent publication US20240239788A1, “SMALL MOLECULE INHIBITORS OF KRAS G12D MUTANT” (Merck Sharp & Dohme LLC, priority 2021, published 2024).
Read-outs that look alike come from different tables or passages of the source.

Columns and labels:
[1] = tested on: AsPC-1 cells containing homozygous KRAS-G12D activating mutation; assay: Cellular phospho-ERK assay (Examples 1a-106); type: cell-based; conditions: AsPC-1 cells, 2 hours, ratio of p-Erk vs total Erk, read-out: IC50 (nM) pERK (Cell)
Source text: 5% CO? overnight. […] Assay plates were read on a EnVision Multimode Plate Reader (PerkinElmer) and the ratio of p-Erk vs total Erk in each well was used as the final readout.

[2] = molecular target: KRAS G12D / Ras binding domain of C-RAF (Homo sapiens (Human), UniProt P01116, G12D); assay: RAS:RAF-RBD binding assay (cRaf), TR-FRET; conditions: biotinylated KRAS G12D, GST-C-RAF RBD
Sequence of KRAS G12D / Ras binding domain of C-RAF (P01116 other isoform, or with tags, fused parts or gaps G12D (already in the parent)): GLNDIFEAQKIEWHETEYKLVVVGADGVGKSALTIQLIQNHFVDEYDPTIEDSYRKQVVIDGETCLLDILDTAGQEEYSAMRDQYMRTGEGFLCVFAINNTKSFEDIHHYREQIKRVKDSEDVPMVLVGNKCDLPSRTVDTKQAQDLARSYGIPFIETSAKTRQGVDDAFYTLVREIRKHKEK
Method: Compounds are added to KRAS and then after a 30-minute incubation time the RAF-RBD and detection antibodies are added. Small molecule inhibitors that block the interaction of c-RAF-RBD prevent generation of a TR-FRET signal.
Biotinylated KRAS G12D protein is diluted to 20 nM in assay buffer (20 mM HEPES pH 7.5, 150 mM sodium chloride, 10 mM magnesium chloride, and 0.01% Tween20).
Each test compound (10 mM stock in DMSO) is diluted in DMSO to make a 10-point, 3-fold dilution series in a 384-well low dead volume microplate (Labcyte, catalog #LP-0200).
Each well of the assay plate receives 5 μL of Biotinylated KRAS G12D assay solution and is incubated at room temperature for 30 minutes. Each well then receives 5 μL of 100 nM GST-C-RAF RBD protein and a 1:100 dilution of both anti-GST-d2 (Cisbio catalog #61GSTDLA) and Streptavidin-Tb cryptate (Cisbio catalog #610SATLA) in assay buffer and the plate is mixed and briefly centrifuged followed by a 60 minute incubation at room temperature.
The apparent effect as a function of compound concentration is fit to a four-parameter logistic equation.

[3] = molecular target: KRAS protein containing G12D mutation (Homo sapiens (Human), UniProt P01116, G12D); assay: SOS-catalyzed nucleotide exchange assay (GNE), TR-FRET; type: biochemical; conditions: biotinylated KRAS G12D, SOS and GTP, 60-minute incubation
Sequence of KRAS protein containing G12D mutation (P01116 other isoform, or with tags, fused parts or gaps G12D (already in the parent)): as above
Method: Compounds are added to this complex and then after a 60-minute incubation time the mixture is treated with SOS and unlabeled GTP. Small molecule inhibitors stabilize the Bodipy-GDP complex whereas the untreated protein rapidly exchanges Bodipy-GDP for unlabeled GTP resulting in reduced TR-FRET signal.
This solution is referred to as biotinylated KRAS G12D stock solution.

SMILES	IC50 [1] [nM]	IC50 ([2]; IC50 (nM) (cRaf))	IC50 [3] [nM]	IC50 ([1]; Homo sapiens, ASPC1, 2 h) [nM]	IC50 ([2]; read-out: IC50 (nM) (cRaf))
C#Cc1cccc2cc(O)cc(-c3c(F)cc4c(N5C[C@H]6CC[C@@](C)(C5)N6)nc(OCC5(CN6CC[C@@H](F)C6)CC5)nc4c3F)c12 (single isomer, unassigned) [103a]	3.76	26.2	1.05		
CN(C)CC1(COc2nc(N3CC4CC(O)C(C3)N4)c3cc(Cl)c(-c4cc(O)cc5ccccc45)c(F)c3n2)CC1 (single isomer, unassigned) [Example 22b, 3-(6-chloro-2-((1-((dimethylamino)meth-yl)cyclo-propyl)methoxy)-8-fluoro-7-(3-hydroxy-naphthalen-1-yl)quinazolin-4-yl)-3,8-diazabicyclo[3.2.1]oc-tan-6-ol]	38300	8450	78.9		
CN(C)CC1(COc2nc(N3C[C@H]4NC(C)(C[C@H]4O)C3)c3cc(Cl)c(-c4cc(O)cc5ccccc45)c(F)c3n2)CC1 (stereo in doubt) [Example 42, 3-(6-chloro-2-((1-((dimethylamino)methyl)cyclopropyl)methoxy)-8-fluoro-7-(3-hydroxynaphthalen-1-yl)quinazolin-4-yl)-1-methyl-3,8-diazabicyclo [3.2.1]octan-6-ol]		20400	17.5	8460	
Cc1cc2[nH]ncc2c(-c2c(F)cc3c(N4C[C@H]5CC[C@@](C)(C4)N5)nc(OC[C@@]45CCCN4C[C@H](F)C5)nc3c2F)c1C(F)(F)F [Ex 86, 6,8-difluoro-2-(((2R,7aS)-2-fluorotetrahydro-1H-pyrrolizin-7a(5H)-yl)methoxy)-7-(6-methyl-5-(trifluoromethyl)-1H-indazol-4-yl)-4-((1S,5R)-1-methyl-3,8-diazabicyclo [3.2.1]octan-3-yl)quinazoline]		268	0.723	213	
Cc1cc2[nH]ncc2c(C2Cc3nc(OCC4(CN5CC[C@@H](F)C5)CC4)nc(N4C[C@H]5CC[C@@](C)(C4)N5)c3C(=O)N2)c1C(F)(F)F (single isomer, unassigned) [Ex. 98a]	7270		380		34200
Nc1nc2c(-c3c(Cl)cc4c(N5CC6CCC(C5)N6)nc(OCC5(CN6CCOCC6)CC5)nc4c3F)ccc(F)c2s1 [Example 62, 4-(4-(3,8-diazabicyclo[3.2.1]octan-3-yl)-6-chloro-8-fluoro-2-((1-(morpholinomethyl)cyclopropyl)methoxy)quinazolin-7-yl)-7-fluorobenzo[d]thiazol-2-amine]		334	3.83	1860	
CN(C)CC1(COc2nc(N3CC4CCC(C3)N4)c3cc(Cl)c(-c4cc(O)c(F)c5ccccc45)c(F)c3n2)CC1 [Example 57, 4-(4-(3,8-diazabicyclo[3.2.1]octan-3-yl)-6-chloro-2-((1-((dimethylamino)methyl)cyclopropyl)methoxy)-8-fluoroquinazolin-7-yl)-1-fluoronaphthalen-2-ol]		31500	404	6850	
CN(C)CC1(COc2nc(N3CC4C[C@@H](O)[C@@](C)(C3)N4)c3cc(Cl)c(-c4cc(O)cc5ccccc45)c(F)c3n2)CC1 (stereo in doubt) [Example 43, 3-(6-chloro-2-((1-((dimethylamino)methyl)cyclopropyl)methoxy)-8-fluoro-7-(3-hydroxynaphthalen-1-yl)quinazolin-4-yl)-5-methyl-3,8-diazabicyclo [3.2.1]octan-6-ol]		2200	74.3	12600	
CN(C)CC1(COc2nc(N3C[C@H]4C[C@@H](O)[C@@H](C3)N4)c3cc(Cl)c(-c4cc(O)cc5ccccc45)c(F)c3n2)CC1 (single isomer, unassigned) [Example 18b]	50800	2680	77.3		
Cc1cc2[nH]nc(C)c2c(-c2c(F)cc3c(N4C[C@H]5CC[C@@](C)(C4)N5)nc(OCC4(CN5CC[C@@H](F)C5)CC4)nc3c2F)c1C [Ex 85, 6,8-difluoro-2-((1-(((R)-3-fluoropyrrolidin-1-yl)methyl)cyclopropyl)methoxy)-4-((1S,5R)-1-methyl-3,8-diazabicyclo [3.2.1]octan-3-yl)-7-(3,5,6-trimethyl-1H-indazol-4-yl)quinazoline]		18900	255	5620	
CN(C)CC1(COc2nc(N3C[C@@]4(C)CC[C@H]3CN4)c3cc(Cl)c(-c4cc(O)cc5ccccc45)c(F)c3n2)CC1 (single isomer, unassigned) [Example 38a]	1280	617	45.2		
COC1CC2CN(c3nc(OCC4(CN(C)C)CC4)nc4c(F)c(-c5cc(O)cc6ccccc56)c(Cl)cc34)CC1N2 [Example 26, 4-(6-chloro-2-((1-((dimethylamino)meth-yl)cyclo-propyl)methoxy)-8-fluoro-4-(R,R,6-methoxy-3,8-diazabi-cyclo[3.2.1]octan-3-yl)quinazolin-7-yl)naphthalen-2-ol]		11800	358	10400	
Cc1cc2[nH]ncc2c(-c2c(F)cc3c(N4C[C@H]5CC[C@@](C)(C4)N5)nc(OC[C@@H]4C[C@@H](F)CN4C)nc3c2F)c1C(F)(F)F [Example 67, 6,8-difluoro-2-(((2S,4R)-4-fluoro-1-methylpyrrolidin-2-yl)methoxy)-7-(6-methyl-5-(trifluoromethyl)-H-indazol-4-yl)-4-((1S,5R)-1-methyl-3,8-diazabicyclo[3.2.1]octan-3-yl)quinazoline]		4040	173	2860	
CN(C)C[C@@]1(COc2nc(N3C[C@H]4CC[C@@](C)(C3)N4)c3cnc(-c4cc(O)cc5cccc(Cl)c45)c(F)c3n2)CC1(F)F [Ex. 100, 5-chloro-4-(2-(((R)-1-((dimethylamino)methyl)-2,2-difluorocyclopropyl)methoxy)-8-fluoro-4-((1S,5R)-1-methyl-3,8-diazabicyclo[3.2.1]octan-3-yl)pyrido[4,3-d]pyrimidin-7-yl)naphthalen-2-ol]		89.9	1.56	99.8	
CN(C)CC1(COc2nc(N3C[C@H]4C[C@@H](O)[C@@H](C3)N4)c3cc(Cl)c(-c4cc(O)cc5ccccc45)c(F)c3n2)CC1 (single isomer, unassigned) [Example 18a]	20600	293	8.97		
Cc1cc2[nH]ncc2c(-c2c(F)cc3c(N4C[C@H]5CC[C@@](C)(C4)N5)nc(OCC4(CN5CC[C@@H](F)C5)CC4)nc3c2F)c1C(F)(F)F (single isomer, unassigned) [Ex 80a]	737	4050	31.8		
COC1CC2CN(c3nc(OCC4(CN(C)C)CC4)nc4c(F)c(-c5cc(O)cc6ccccc56)c(F)cc34)CC1N2 (centres unmarked) [Example 25, 4-(2-((1-((dimethyl-amino)methyl)cyclo-propyl)methoxy)-6,8-difluoro-4-(6-methoxy-3,8-diazabicyclo[3.2.1]oc-tan-3-yl)quinazolin-7-yl)naphthalen-2-ol]		20300	454	7070	
C[C@@]12CC[C@@H](CN(c3nc(OCC4(CN5CC[C@@H](F)C5)CC4)nc4c3CCN(c3cccc5cccc(Br)c35)C4)C1)N2 [compound 94, 7-(8-bromonaphthalen-1-yl)-2-((1-(((R)-3-fluoropyrroli-din-1-yl)methyl)cyclopropyl)methoxy)-4-((1S,5R)-1-methyl-3,8-diazabicyclo[3.2.1]octan-3-yl)-5,6,7,8-tetrahydropyrido[3,4-d]pyrimidine]		32900	116	8470	
COC1CC2CN(c3nc(OCC4(CN(C)C)CC4)nc4c(F)c(-c5cc(O)cc6ccccc56)c(F)cc34)CC1N2 [Example 24, 4-(2-((1-((dimethylamino)meth-yl)cyclopropyl)meth-oxy)-6,8-difluoro-4-(6-methoxy-3,8-di-azabicyclo[3.2.1]octan-3-yl)quinazolin-7-yl)naphthalen-2-olR,R,]	7110		280		10800
CN(C)CC1(COc2nc(N3C[C@@H]4CC[C@H]3CN4)c3cc(F)c(-c4cc(O)cc5ccccc45)c(F)c3n2)CC1 [Example 7, 4-(4-((1S,4S)-2,5-diazabicyclo[2.2.2]octan-2-yl)-2-((1-((dimethylamino)methyl)cyclopropyl)methoxy)-6,8-difluoroquinazolin-7-yl)naphthalen-2-ol]		2990	35.5	5020	
Nc1nc2c(-c3c(F)cc4c(N5CC6CCC(C5)N6)nc(OCC5(CN6CC[C@@H](F)C6)CC5)nc4c3F)ccc(F)c2s1 [Example 61]		3350	38.7	7580	
CN(C)CC1(COc2nc(N3CC4CCC(C3)N4)c3cc(Cl)c(-c4cc(C(F)(F)F)cc5[nH]ncc45)c(F)c3n2)CC1 [Example 56, 1-(1-(((4-(3,8-diazabicyclo[3.2.1]octan-3-yl)-6-chloro-8-fluoro-7-(6-(trifluoromethyl)-1H-indazol-4-yl)quinazolin-2-yl)oxy)methyl)cyclopropyl)-N,N-dimethylmethanamine]			4030	6920	
